Test results as given in US8178683B2, “Antimicrobial ortho-fluorophenyl oxazolidinones for treatment of bacterial infections” (Micurx Pharmaceuticals, Inc., priority 2007, dated 2012).
≈ marks a conversion by molar mass, not a printed value. Where “and” joins values, the source holds several entries; their conditions need not be identical. Equal entries are not always repeated.

Legend:
[1] = tested on: methicillin-resistant Staphylococcus aureus (MRSA); assay: Minimum inhibitory concentration (MIC) against MRSA clinical isolate; assay type: cell-based; conditions: clinical isolate of MRSA from the Massachusetts General Hospital
Description: Compounds of this invention can have useful activity against a variety of pathogenic microorganisms. The in vitro activity of compounds of this invention can be assessed by standard testing procedures such as the determination of minimum inhibitory concentration (MIC) by agar dilution as described in “Approved Standard. Methods for Dilution Antimicrobial Susceptibility Tests for Bacteria That Grow Aerobically”, 3rd. ed., published 1993 by the National Committee for Clinical Laboratory Standards, Villanova, Pa., USA. Minimum inhibitory concentration (MIC) refers to the lowest concentration of drug (μg/mL) that inhibits visible growth of the organism. Lower MIC values indicate a higher antibacterial activity. Typically, compounds of present invention have useful potency against Gram-positive or Gram-negative pathogens with MIC values of ≦16 μg/mL. The useful activity of compounds of the present invention against a clinical isolate of methicillin-resistant Staphylococcus aureus (MRSA; from the Massachusetts General Hospital, USA) is illustrated by the MIC data of Table 1.

[2] = molecular target: T1, Human monoamine oxidase (MOA) A type enzyme (Homo sapiens, UniProt P21397); assay: MAO-Glo monoamine oxidase A enzyme inhibition assay; assay type: biochemical; conditions: human MAO A enzyme (BD Gentest), MAO-Glo kit; Linezolid value of side-by-side test in parenthesis
T1 construct: purchased BD Gentest
T1 sequence (P21397 1-527): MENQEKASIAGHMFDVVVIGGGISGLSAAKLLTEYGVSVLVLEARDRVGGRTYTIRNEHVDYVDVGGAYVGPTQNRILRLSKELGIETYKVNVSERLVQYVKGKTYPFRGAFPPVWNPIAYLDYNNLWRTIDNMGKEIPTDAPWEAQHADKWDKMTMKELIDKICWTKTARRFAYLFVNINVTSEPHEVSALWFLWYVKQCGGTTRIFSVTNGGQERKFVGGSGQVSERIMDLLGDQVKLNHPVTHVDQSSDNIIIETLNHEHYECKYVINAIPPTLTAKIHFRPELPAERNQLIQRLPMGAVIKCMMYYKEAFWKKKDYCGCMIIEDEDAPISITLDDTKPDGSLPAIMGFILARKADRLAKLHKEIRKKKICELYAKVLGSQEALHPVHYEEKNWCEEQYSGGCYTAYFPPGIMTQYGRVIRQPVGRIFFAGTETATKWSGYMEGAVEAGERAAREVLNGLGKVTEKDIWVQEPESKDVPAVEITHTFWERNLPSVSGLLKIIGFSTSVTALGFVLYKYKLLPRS
Description: Human monoamine oxidase (MOA) A type enzyme inhibition activity for select compounds was measured using a commercial MAO assay kit MAO-Glo™ from Promega Co. (USA). The assay was performed as described in the company's technical bulletin “MAO-Glo™ Assay”. The protocol involves an incubation of the MAO A enzyme (BD Gentest™) with a luminogenic MAO substrate to produce an enzymatic product which is converted to luciferin by a coupled reaction. The released luciferin undergoes further transformation to generate light that is detected and measured. The amount of the light is directly proportional to the activity of MAO. Percent inhibition at several concentrations is established relative to the uninhibited control rate, and the IC50 (μg/mL) values are calculated. […] The MAO inhibition data for select compound of this invention are illustrated in the Table 2 below.

[3] = tested on: human CD34+ bone marrow cells; assay: Myelosuppressive potential: bone marrow CD34+ cell growth inhibition, luminescence assay; assay type: cell-based; conditions: 9-10 days at 37° C., Linezolid value of side-by-side test in parenthesis; for IC50: Homo sapiens, CD34+ cell
Description: Myelosuppressive potential (hematopoietic or bone marrow toxicity) was evaluated using human CD34^+ bone marrow cells, generally following methods described by Leach in International Patent Publication No. WO 2006/097828. Thus, an oxazolidinone compound was incubated with fresh human bone marrow cells for 9-10 days at 37° C. in 5% CO2 atmosphere. At end of the incubation period, the bone marrow toxicity was accessed by measuring inhibition (IC50, μg/mL) of CD34^+ cell growth using a luminescence assay. Lower IC50 value indicates a higher myelosuppression potential with enhanced probability of undesired adverse effects in vivo, while a higher IC50 value indicates reduced bone marrow toxicity. The CD34^+ inhibition data for representative compounds of this invention are illustrated in the Table 2 below.

SMILES | MIC [1] | other results
O=C1C=CN(c2c(F)cc(N3C[C@H](CO)OC3=O)c(F)c2F)CC1 [Example 1] | 4 µg/mL (≈ 11.7 µM) | 
CC(=O)NC[C@H]1CN(c2cc(F)c(N3C=CC(=O)CC3)c(F)c2F)C(=O)O1 [Example 2] | 2 µg/mL (≈ 5.22 µM) | IC50 [2]: 148 µM; IC50 [3]: 13.2 µg/mL (≈ 34.4 µM)
O=C1C=CN(c2c(F)cc(N3C[C@H](Cn4ccnn4)OC3=O)c(F)c2F)CC1 [Example 3] | 1 µg/mL (≈ 2.54 µM) | 
COC(=O)NC[C@H]1CN(c2cc(F)c(N3C=CC(=O)CC3)c(F)c2F)C(=O)O1 [Example 4] | 2 µg/mL (≈ 5.01 µM) | IC50 [2]: 54.3 µM; IC50 [3]: 17.7 µg/mL (≈ 44.3 µM)
O=C1C=CN(c2c(F)cc(N3C[C@H](CNc4ccon4)OC3=O)c(F)c2F)CC1 [Example 5] | 1 µg/mL (≈ 2.45 µM) | IC50 [2]: 30.1 µM; IC50 [3]: 15.7 µg/mL (≈ 38.4 µM)
Cc1cc(NC[C@H]2CN(c3cc(F)c(N4C=CC(=O)CC4)c(F)c3F)C(=O)O2)no1 [Example 6] | 4 µg/mL (≈ 9.47 µM) | 
CCC(=O)NC[C@H]1CN(c2cc(F)c(N3C=CC(=O)CC3)c(F)c2F)C(=O)O1 [Example 7] | 2 µg/mL (≈ 5.03 µM) | 
Cc1cn(C[C@H]2CN(c3cc(F)c(N4C=CC(=O)CC4)c(F)c3F)C(=O)O2)nn1 [Example 8] | 4 µg/mL (≈ 9.82 µM) | 
CC(=O)NC[C@H]1CN(c2ccc(N3C=CC(=O)CC3)c(F)c2F)C(=O)O1 [Example 9] | 1 µg/mL (≈ 2.74 µM) | 
O=C1C=CN(c2ccc(N3C[C@H](CO)OC3=O)c(F)c2F)CC1 [Example 10] | 2 µg/mL (≈ 6.17 µM) | 
O=C1C=CN(c2ccc(N3C[C@H](Cn4ccnn4)OC3=O)c(F)c2F)CC1 [Example 11] | 1 µg/mL (≈ 2.66 µM) | 
Cc1cn(C[C@H]2CN(c3ccc(N4C=CC(=O)CC4)c(F)c3F)C(=O)O2)nn1 [Example 12] | 4 µg/mL (≈ 10.3 µM) | 
COC(=O)NC[C@H]1CN(c2ccc(N3C=CC(=O)CC3)c(F)c2F)C(=O)O1 [Example 13] | 1 µg/mL (≈ 2.62 µM) | IC50 [2]: 44.8 µM; IC50 [3]: 6.3 µg/mL (≈ 16.5 µM)
O=C1C=CN(c2ccc(N3C[C@H](CNc4ccon4)OC3=O)c(F)c2F)CC1 [Example 14] | 0.25 µg/mL (≈ 0.64 µM) | 
CCC(=O)NC[C@H]1CN(c2ccc(N3C=CC(=O)CC3)c(F)c2F)C(=O)O1 [Example 15] | 2 µg/mL (≈ 5.27 µM) | 
O=C1C=CN(c2ccc(N3C[C@H](COc4ccon4)OC3=O)c(F)c2F)CC1 [Example 16] | 4 µg/mL (≈ 10.2 µM) | 
CC(=O)NC[C@H]1CN(c2cc(F)c(N3C=CC(=O)CC3)cc2F)C(=O)O1 [Example 17] | 4 µg/mL (≈ 10.9 µM) | 
O=C1C=CN(c2cc(F)c(N3C[C@H](Cn4ccnn4)OC3=O)cc2F)CC1 [Example 18] | 4 µg/mL (≈ 10.7 µM) | 
N#Cc1cn(C[C@H]2CN(c3cc(F)c(N4C=CC(=O)CC4)c(F)c3F)C(=O)O2)nn1 [Example 19] | 4 µg/mL (≈ 9.56 µM) | 
O=C1C=CN(c2c(F)cc(N3C[C@H](Cn4cc(F)nn4)OC3=O)c(F)c2F)CC1 [Example 20] | 4 µg/mL (≈ 9.72 µM) | 
Cn1nnc(-c2ccc(-c3cc(F)c(N4C[C@H](Cn5ccnn5)OC4=O)cc3F)cn2)n1 [Example 21] | 2 µg/mL (≈ 4.55 µM) | 
Cn1nnnc1-c1ccc(-c2ccc(N3C[C@H](CO)OC3=O)c(F)c2F)cn1 [Example 22] | 1 µg/mL (≈ 2.58 µM) | 
COC(=O)NC[C@H]1CN(c2ccc(-c3ccc(-c4nnnn4C)nc3)c(F)c2F)C(=O)O1 [Example 23] | 1 µg/mL (≈ 2.25 µM) | 
O=C1C=CN(c2ccc(N3C[C@H](Cn4ccnn4)OC3=O)cc2F)CC1 [Example 25, reference compound] |  | IC50 [2]: 5.04 µM; IC50 [3]: 2.6 µg/mL (≈ 7.28 µM)
CC(=O)NC[C@H]1CN(c2cc(F)c(N3CCOCC3)c(F)c2F)C(=O)O1 [Example 26, reference compound] | 2 µg/mL (≈ 5.36 µM) | 
CC(=O)NC[C@H]1CN(c2ccc(N3CCOCC3)c(F)c2)C(=O)O1 [Linezolid, linezolid, reference compound] | 2 µg/mL (≈ 5.93 µM) | IC50 [2]: 11.3 µM; CD34 IC50 [3]: Range 7.9-14.0 μg/mL; CD34 IC50 ([3]; listed as Lin.): 14.0 µg/mL and 8.1 µg/mL; IC50 [3]: 7.9 µg/mL (≈ 23.4 µM)
